Experimental data reported in PubChem BioAssay (NCI).
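48-hour exposure; five concentrations; linearly interpolated endpoints. TGI is the concentration that stops growth completely.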

What was measured:
Experiment in all cases: NCI anticancer screen, dose series, 48 h
SF-539 CNS = test system: SF-539 CNS
M19-MEL melanoma = test system: M19-MEL melanoma
CCRF-CEM leukemia = test system: CCRF-CEM leukemia
SN12C renal = test system: SN12C renal
OVCAR-5 ovarian = test system: OVCAR-5 ovarian
NCI-H23 lung = test system: NCI-H23 lung
CAKI-1 renal = test system: CAKI-1 renal
SNB-75 CNS = test system: SNB-75 CNS
MOLT-4 leukemia = test system: MOLT-4 leukemia
XF 498 CNS = test system: XF 498 CNS
DMS 114 small cell lung = test system: DMS 114 small cell lung
M14 melanoma = test system: M14 melanoma
KM12 colon = test system: KM12 colon
SK-MEL-5 melanoma = test system: SK-MEL-5 melanoma
DMS 273 small cell lung = test system: DMS 273 small cell lung
KM20L2 colon = test system: KM20L2 colon
EKVX NSCLC = test system: EKVX NSCLC
ACHN renal = test system: ACHN renal
DLD-1 colon = test system: DLD-1 colon
A498 renal = test system: A498 renal
HOP-18 NSCLC = test system: HOP-18 NSCLC
UO-31 renal = test system: UO-31 renal
TK-10 renal = test system: TK-10 renal
COLO 205 colon = test system: COLO 205 colon
HOP-92 NSCLC = test system: HOP-92 NSCLC
U251 CNS = test system: U251 CNS
HT29 colon = test system: HT29 colon
NCI-H226 lung = test system: NCI-H226 lung
SK-MEL-28 melanoma = test system: SK-MEL-28 melanoma
UACC-257 melanoma = test system: UACC-257 melanoma
SK-OV-3 ovarian = test system: SK-OV-3 ovarian
SW-620 colon = test system: SW-620 colon
K-562 leukemia = test system: K-562 leukemia
MALME-3M melanoma = test system: MALME-3M melanoma
SNB-78 CNS = test system: SNB-78 CNS
SR leukemia = test system: SR leukemia
SK-MEL-2 melanoma = test system: SK-MEL-2 melanoma
HCT-116 colon = test system: HCT-116 colon
HL-60(TB) leukemia = test system: HL-60(TB) leukemia
RPMI-8226 leukemia = test system: RPMI-8226 leukemia
HCT-15 colon = test system: HCT-15 colon
OVCAR-3 ovarian = test system: OVCAR-3 ovarian
LXFL 529 NSCLC = test system: LXFL 529 NSCLC
HCC-2998 colon = test system: HCC-2998 colon
786-0 renal = test system: 786-0 renal
RXF-631 renal = test system: RXF-631 renal
RXF 393 renal = test system: RXF 393 renal
A549 NSCLC = test system: A549 NSCLC
SF-295 CNS = test system: SF-295 CNS
HOP-62 NSCLC = test system: HOP-62 NSCLC
OVCAR-8 ovarian = test system: OVCAR-8 ovarian
NCI-H460 lung = test system: NCI-H460 lung
IGROV1 ovarian = test system: IGROV1 ovarian
SF-268 CNS = test system: SF-268 CNS
OVCAR-4 ovarian = test system: OVCAR-4 ovarian
UACC-62 melanoma = test system: UACC-62 melanoma
SNB-19 CNS = test system: SNB-19 CNS

Cc1[nH]c2ccccc2c1C1=NO/C(=N\O)C(c2c(C)[nH]c3ccccc23)C1 (configuration not stated)
TGI (SF-539 CNS): > 80.3 µM | TGI (M19-MEL melanoma): > 100 µM | TGI (CCRF-CEM leukemia): > 100 µM | TGI (SN12C renal): > 100 µM | TGI (OVCAR-5 ovarian): > 100 µM | TGI (NCI-H23 lung): > 100 µM | TGI (CAKI-1 renal): > 100 µM | TGI (SNB-75 CNS): > 100 µM | TGI (MOLT-4 leukemia): 69.6 µM | TGI (XF 498 CNS): > 100 µM | TGI (DMS 114 small cell lung): > 100 µM | TGI (M14 melanoma): > 89.6 µM | TGI (KM12 colon): > 100 µM | TGI (SK-MEL-5 melanoma): > 31.6 µM | TGI (DMS 273 small cell lung): > 100 µM | TGI (KM20L2 colon): 50.5 µM | TGI (EKVX NSCLC): > 100 µM | TGI (ACHN renal): > 91.1 µM | TGI (DLD-1 colon): > 100 µM | TGI (A498 renal): > 100 µM | TGI (HOP-18 NSCLC): > 100 µM | TGI (UO-31 renal): > 80.5 µM | TGI (TK-10 renal): > 100 µM | TGI (COLO 205 colon): 41 µM | TGI (HOP-92 NSCLC): > 78.5 µM | TGI (U251 CNS): > 100 µM | TGI (HT29 colon): 58.9 µM | TGI (NCI-H226 lung): > 100 µM | TGI (SK-MEL-28 melanoma): > 100 µM | TGI (UACC-257 melanoma): > 100 µM | TGI (SK-OV-3 ovarian): > 100 µM | TGI (SW-620 colon): > 100 µM | TGI (K-562 leukemia): > 100 µM | TGI (MALME-3M melanoma): > 100 µM | TGI (SNB-78 CNS): > 100 µM | TGI (SR leukemia): > 78.7 µM | TGI (SK-MEL-2 melanoma): > 100 µM | TGI (HCT-116 colon): > 78.5 µM | TGI (HL-60(TB) leukemia): 54 µM | TGI (RPMI-8226 leukemia): > 100 µM | TGI (HCT-15 colon): > 100 µM | TGI (OVCAR-3 ovarian): 70.7 µM | TGI (LXFL 529 NSCLC): > 100 µM | TGI (HCC-2998 colon): > 100 µM | TGI (786-0 renal): > 100 µM | TGI (RXF-631 renal): > 100 µM | TGI (RXF 393 renal): 87.1 µM | TGI (A549 NSCLC): > 100 µM | TGI (SF-295 CNS): > 100 µM | TGI (HOP-62 NSCLC): 64.6 µM | TGI (OVCAR-8 ovarian): > 100 µM | TGI (NCI-H460 lung): > 67.6 µM | TGI (IGROV1 ovarian): > 100 µM | TGI (SF-268 CNS): > 100 µM | TGI (OVCAR-4 ovarian): > 100 µM | TGI (UACC-62 melanoma): 62.7 µM | TGI (SNB-19 CNS): > 100 µM
